As usually defined, the inhibition is the percentage by which the read-out fell short of the control. A high value points to strong suppression. As usually defined, the melting point is the temperature of the solid-liquid transition.

Six compounds from paper PMC7594025, “Synthesis, Docking, 3-D-Qsar, and Biological Assays of Novel Indole Derivatives Targeting Serotonin Transporter, Dopamine D2 Receptor, and Mao-A Enzyme: In the Pursuit for Potential Multitarget Directed Ligands” (Molecules, 2020) can be followed below.

One series addresses T1, SERT (Homo sapiens, UniProt P31645).
T1 construct: purchased Perkin-Elmer (Boston, MA, USA) RBHSTM400UA; host or cells: HEK-293 clonal cell line
Nature of the series: SERT competitive binding assay, [3H]-paroxetine, membranes from HEK-293 clonal cell line overexpressing SERT. On the procedure:
To determine the binding of all compounds at SERT, competitive binding assays were performed according to previously reported procedures with some modifications. […] Control curve was performed with fluoxetine in the same experimental conditions. Non-specific binding was determined with 10 µM fluoxetine.
The IC50 and Ki values correspond to the results of three independent experiments, each in triplicate. All data are expressed as the mean ± SEM.

In a further series the target is T2, D2 receptor (Homo sapiens, UniProt P14416).
T2 construct: purchased Perkin-Elmer (Boston, MA, USA) RBHD2CM400UA; host or cells: CHO-K1 clonal cell line
Nature of the series: D2 receptor competitive binding assay, [3H]-methylspiperone, membranes from CHO-K1 clonal cell line overexpressing D2 receptor. The following applies: for Ki: 0.5 nM [3H]-methylspiperone, 2 h at 27 °C, mean ± SEM of three experiments, each in triplicate. On the procedure: To determine the binding of all compounds at D2 receptor, competitive binding assays were performed according to provider indications with some modifications. […] Radioactivity was counted as described before.

The target of another series is T3, rat MAO-A (Rattus norvegicus, UniProt P21396).
T3 construct: using a crude rat brain mitochondrial suspension as a source of enzyme; from tissue; host or cells: rat brain (crude mitochondrial suspension)
T3 sequence (P21396 1-526): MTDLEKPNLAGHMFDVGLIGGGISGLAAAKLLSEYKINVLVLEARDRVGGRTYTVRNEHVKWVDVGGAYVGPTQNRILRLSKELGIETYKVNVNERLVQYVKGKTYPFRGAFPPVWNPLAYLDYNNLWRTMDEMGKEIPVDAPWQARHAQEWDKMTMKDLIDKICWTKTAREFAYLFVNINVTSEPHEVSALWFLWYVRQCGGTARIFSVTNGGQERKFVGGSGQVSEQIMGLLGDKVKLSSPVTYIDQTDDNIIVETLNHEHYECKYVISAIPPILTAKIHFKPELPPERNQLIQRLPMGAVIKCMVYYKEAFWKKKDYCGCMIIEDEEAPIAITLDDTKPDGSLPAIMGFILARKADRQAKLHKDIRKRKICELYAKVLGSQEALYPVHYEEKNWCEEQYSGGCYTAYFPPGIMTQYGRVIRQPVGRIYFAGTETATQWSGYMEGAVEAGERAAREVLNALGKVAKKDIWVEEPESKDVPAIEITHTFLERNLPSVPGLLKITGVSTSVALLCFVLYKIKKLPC
The series is described as follows: MAO-A inhibition, crude rat brain mitochondrial suspension, serotonin substrate, HPLC-ED. In kind it is biochemical. The following applies: 100 µM compound; serotonin 100 µM as substrate. Here is the method: The effects of the compounds on rat MAO-A activity were studied following a previously reported methodology, using a crude rat brain mitochondrial suspension as a source of enzyme. Serotonin (100 µM) was used as the selective substrate for MAO-A. This compound and its metabolite were detected by HPLC with electrochemical detection. As an exploratory evaluation, the percentage of MAO-A inhibition in the presence of 100 µM of the different compounds was determined, with the idea of evaluating in detail those compounds showing an inhibitory activity in the range of 70–100%.

Where [1] appears, read: 2 nM [3H]-paroxetine, 1 h at 27 °C, mean ± SEM of three experiments, each in triplicate, read-out: Ki SERT.

Where two headings read alike, the source gives them in different places.

T2 sequence (P14416 whole entry): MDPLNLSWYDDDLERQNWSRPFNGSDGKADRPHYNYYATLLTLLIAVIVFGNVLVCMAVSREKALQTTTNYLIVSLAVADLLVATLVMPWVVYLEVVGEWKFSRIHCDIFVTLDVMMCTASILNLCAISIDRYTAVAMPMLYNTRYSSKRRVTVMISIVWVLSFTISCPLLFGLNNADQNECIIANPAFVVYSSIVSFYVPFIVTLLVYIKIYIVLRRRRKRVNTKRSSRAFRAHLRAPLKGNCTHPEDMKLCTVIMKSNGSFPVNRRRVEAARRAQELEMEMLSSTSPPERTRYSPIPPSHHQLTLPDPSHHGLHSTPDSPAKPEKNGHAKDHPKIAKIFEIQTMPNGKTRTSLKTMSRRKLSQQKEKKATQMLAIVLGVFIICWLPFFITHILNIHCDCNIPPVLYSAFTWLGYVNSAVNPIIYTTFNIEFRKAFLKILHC
T1 sequence (P31645 whole entry): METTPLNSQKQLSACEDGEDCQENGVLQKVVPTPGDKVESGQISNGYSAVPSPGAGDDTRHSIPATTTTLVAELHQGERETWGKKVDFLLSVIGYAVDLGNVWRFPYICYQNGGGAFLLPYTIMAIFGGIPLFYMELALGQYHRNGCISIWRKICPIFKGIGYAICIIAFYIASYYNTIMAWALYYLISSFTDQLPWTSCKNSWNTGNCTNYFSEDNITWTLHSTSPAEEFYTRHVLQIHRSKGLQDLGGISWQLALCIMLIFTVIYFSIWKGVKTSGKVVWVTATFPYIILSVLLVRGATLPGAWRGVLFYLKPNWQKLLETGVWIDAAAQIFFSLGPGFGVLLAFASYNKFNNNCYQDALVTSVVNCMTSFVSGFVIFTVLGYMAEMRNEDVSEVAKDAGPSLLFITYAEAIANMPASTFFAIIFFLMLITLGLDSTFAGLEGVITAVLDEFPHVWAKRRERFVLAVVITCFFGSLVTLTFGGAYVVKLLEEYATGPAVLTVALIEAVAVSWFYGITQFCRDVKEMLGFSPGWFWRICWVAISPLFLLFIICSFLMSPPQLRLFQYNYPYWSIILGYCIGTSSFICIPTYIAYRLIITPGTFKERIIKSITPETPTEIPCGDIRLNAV

The compound `O=C(CN1CCN(CCCc2c[nH]c3ccc(Br)cc23)CC1)Nc1ccc(F)cc1C(=O)NCCN1CCOCC1` [Compound 13h, 5-Fluoro-2-(2-{4-[3-(5-bromo-1H-3-indolyl)-propyl]-1-piperazinyl}-acetylamino)-N-(2-morpholin-4-yl-ethyl) Benzamide] displayed a melting point of 73.8 to 74.7 °C. Further, the Ki at SERT (setting [1]) turned out to be 0.2 ± 0.0145 µM. Besides, the Ki at D2 receptor was found to be 4.7 ± 0.168 µM. Besides, at rat MAO-A, testing at 100 µM gave an inhibition of 9.4%.
On the same counts, the results for `O=C(CN1CCN(CCCc2c[nH]c3ccc(F)cc23)CC1)N1CCOc2cc(F)ccc21` [Compound 7h, 1-(7-Fluoro-2,3-dihydro-benzo[b][1,4]oxazin-4-yl)-2-{4-[3-(5-fluoro-1H-3-indolyl)-propyl]-1-piperazinyl} ethanamide] are 168.1 to 169.9 °C, 0.00761 ± 2e-05 µM, 2.32 ± 0.163 µM and 0%.
Compound `O=C(CN1CCN(CCCc2c[nH]c3ccc(Br)cc23)CC1)N1CCOc2cc(F)ccc21` [Compound 7n, 1-(7-Fluoro-2,3-dihydro-benzo[b][1,4]oxazin-4-yl)-2-{4-[3-(5-bromo-1H-3-indolyl)-propyl]-1-piperazinyl} ethanamide] yielded a melting point of 96.1 to 98.1 °C. Besides, the Ki at SERT (setting [1]) is 0.0844 µM. At D2 receptor, the Ki stood at 0.307 ± 0.006 µM. Also, at D2 receptor (ratio of Ki at D2 receptor to Ki at SERT), the D2/SERT ratio was determined as 3.6. The inhibition at 100 µM on rat MAO-A is 23%.
Take `COc1ccc2c(c1)N(C(=O)CN1CCN(CCCc3c[nH]c4ccc(F)cc34)CC1)CCO2` [Compound 7l, 1-(6-Methoxy-2,3-dihydro-benzo[b][1,4]oxazin-4-yl)-2-{4-[3-(5-fluoro-1H-3-indolyl)-propyl]-1-piperazinyl} ethanamide]: the melting point was 94.5 to 97.3 °C. Also, the Ki on SERT (setting [1]) is 0.0126 ± 0.00152 µM. At D2 receptor, the Ki came to 3.32 ± 0.256 µM. The compound also had an inhibition at 100 µM at rat MAO-A of 52%.
`O=C(CN1CCN(CCCc2c[nH]c3ccc(Br)cc23)CC1)N1CCOc2ccccc21` [Compound 7m, 1-(2,3-Dihydro-benzo[b][1,4]oxazin-4-yl)-2-{4-[3-(5-bromo-1H-3-indolyl)-propyl]-1-piperazinyl} ethanamide]: the melting point lay within 90.5 to 92.4 °C. Further, the Ki on SERT (setting [1]) stood at 0.0502 ± 0.00247 µM. At SERT (SERT, experimental values used for CoMFA/CoMSIA (Table S3), read-out: Exp. pKi (converted)), the Ki is 0.0501 µM. Besides, at D2 receptor, the Ki stood at 0.593 ± 0.062 µM. This compound also displayed an inhibition at 100 µM against rat MAO-A of 30%.
For the compound `O=C(CN1CCN(CCCc2c[nH]c3ccccc23)CC1)N1CCOc2ccc(Br)cc21` [Compound 7e, 1-(6-Bromo-2,3-dihydro-benzo[b][1,4]oxazin-4-yl)-2-{4-[3-(1H-3-indolyl)-propyl]-1-piperazinyl} ethanamide], the melting point lay in the range of 132.7 to 134.1 °C. Further, on SERT (setting [1]), the Ki came to 0.0366 ± 0.00055 µM. This compound also had a Ki on D2 receptor of 0.91 ± 0.263 µM. In addition, at rat MAO-A, the inhibition at 100 µM is 38%.
